Assay results as given in PubChem BioAssay AID248 (DTP/NCI, 2004).
Values joined by “and” are separate entries in the source; they are usually repeats but may differ in a detail not shown here. Identical values can stand only once. Toxic doses and inconclusive results are not listed. No stated cut-off is given here; in the data, active means T/C of 150% or more; inactive means T/C below 125%.

Tested on: L1210 leukemia ip in BDF1 mice, survival T/C
Assay: NCI In Vivo Anticancer Drug Screen. Data for tumor model L1210 Leukemia (intraperitoneal) in B6D2F1 (BDF1) mice
Details: higher = longer survival
How it was run: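 In this screen, tumor-bearing mice given compound are compared to those given vehicle, and their survival values are reported as a treated-to-control quotient.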

[1] = endpoint: mean survival time, dose: 25.0 mg/kg/injection, schedule: Q01DX009 (ip), vehicle: saline
[2] = endpoint: mean survival time, dose: 50.0 mg/kg/injection, schedule: Q01DX009 (ip), vehicle: saline
[3] = endpoint: mean survival time, dose: 100.0 mg/kg/injection, schedule: Q04DX003 (ip), vehicle: Klucel (hydroxypropylcellulose) (HPC)
[4] = endpoint: mean survival time, dose: 200.0 mg/kg/injection, schedule: Q04DX003 (ip), vehicle: Klucel (hydroxypropylcellulose) (HPC)
[5] = endpoint: mean survival time, dose: 400.0 mg/kg/injection, schedule: Q04DX003 (ip), vehicle: Klucel (hydroxypropylcellulose) (HPC)
[6] = endpoint: mean survival time, dose: 100.0 mg/kg/injection, schedule: Q01DX009 (ip), vehicle: saline
[7] = endpoint: mean survival time, dose: 400.0 mg/kg/injection, schedule: Q04DX003 (ip), vehicle: saline
[8] = endpoint: mean survival time, dose: 100.0 mg/kg/injection, schedule: Q04DX003 (ip), vehicle: saline with Tween-80
[9] = endpoint: mean survival time, dose: 200.0 mg/kg/injection, schedule: Q04DX003 (ip), vehicle: saline with Tween-80
[10] = endpoint: mean survival time, dose: 50.0 mg/kg/injection, schedule: Q01DX009 (ip), vehicle: Klucel (hydroxypropylcellulose) (HPC)
[11] = endpoint: mean survival time, dose: 100.0 mg/kg/injection, schedule: Q01DX009 (ip), vehicle: Klucel (hydroxypropylcellulose) (HPC)
[12] = endpoint: mean survival time, dose: 200.0 mg/kg/injection, schedule: Q01DX009 (ip), vehicle: Klucel (hydroxypropylcellulose) (HPC)
[13] = endpoint: mean survival time, dose: 400.0 mg/kg/injection, schedule: Q04DX003 (ip), vehicle: saline with Tween-80
[14] = endpoint: mean survival time, dose: 75.0 mg/kg/injection, schedule: Q01DX001 (ip), vehicle: saline
[15] = endpoint: mean survival time, dose: 400.0 mg/kg/injection, schedule: Q01DX009 (ip), vehicle: Klucel (hydroxypropylcellulose) (HPC)
[16] = endpoint: mean survival time, dose: 100.0 mg/kg/injection, schedule: Q01DX009 (ip), vehicle: saline with Tween-80
[17] = endpoint: mean survival time, dose: 200.0 mg/kg/injection, schedule: Q01DX009 (ip), vehicle: saline with Tween-80
[18] = endpoint: mean survival time, dose: 400.0 mg/kg/injection, schedule: Q01DX009 (ip), vehicle: saline with Tween-80
[19] = endpoint: mean survival time, dose: 50.0 mg/kg/injection, schedule: Q01DX009 (ip), vehicle: saline with Tween-80
[20] = endpoint: mean survival time, dose: 100.0 mg/kg/injection, schedule: Q04DX002 (ip), vehicle: saline
[21] = endpoint: mean survival time, dose: 200.0 mg/kg/injection, schedule: Q04DX002 (ip), vehicle: saline

Measured: T/C

C=C1CC[N+]2(C)CCCC12 (stereo not drawn)
inactive: endpoint: mean survival time, dose: 12.5 mg/kg/injection, schedule: Q01DX009 (ip), vehicle: saline 100 % of control | [1] 113 % of control | [2] 95 % of control and 91 % of control

CCCCCOC(=O)C#CC(=O)OCCCCC
inactive: endpoint: mean survival time, dose: 1.56 mg/kg/injection, schedule: Q01DX009 (ip), vehicle: carboxymethylcellulose (CMC) 92 % of control and 101 % of control | endpoint: mean survival time, dose: 3.13 mg/kg/injection, schedule: Q01DX009 (ip), vehicle: carboxymethylcellulose (CMC) 108 % of control and 89 % of control | endpoint: mean survival time, dose: 12.5 mg/kg/injection, schedule: Q01DX009 (ip), vehicle: carboxymethylcellulose (CMC) 89 % of control | endpoint: mean survival time, dose: 12.5 mg/kg/injection, schedule: Q04DX003 (ip), vehicle: carboxymethylcellulose (CMC) 98 % of control | endpoint: mean survival time, dose: 25.0 mg/kg/injection, schedule: Q04DX003 (ip), vehicle: carboxymethylcellulose (CMC) 98 % of control | endpoint: mean survival time, dose: 50.0 mg/kg/injection, schedule: Q01DX009 (ip), vehicle: carboxymethylcellulose (CMC) 89 % of control | endpoint: mean survival time, dose: 50.0 mg/kg/injection, schedule: Q04DX003 (ip), vehicle: carboxymethylcellulose (CMC) 96 % of control and 100 % of control | endpoint: mean survival time, dose: 100.0 mg/kg/injection, schedule: Q04DX002 (ip), vehicle: carboxymethylcellulose (CMC) 97 % of control and 106 % of control | endpoint: mean survival time, dose: 200.0 mg/kg/injection, schedule: Q04DX002 (ip), vehicle: carboxymethylcellulose (CMC) 95 % of control and 97 % of control

CCOC(=O)c1[nH]c2ccsc2c1CN(C)C
inactive: [3] 102 % of control | [4] 91 % of control | [5] 97 % of control

COc1ccc(N2CSC(=S)N(c3ccc(OC)cc3)C2)cc1
inactive: [1] 96 % of control | [2] 93 % of control | [6] 95 % of control | [7] 91 % of control

c1csc([Si](c2cccs2)(c2cccs2)c2cccs2)c1
inactive: endpoint: mean survival time, dose: 100.0 mg/kg/injection, schedule: Q04DX002 (ip), vehicle: saline with Tween-80 103 % of control | endpoint: mean survival time, dose: 200.0 mg/kg/injection, schedule: Q04DX002 (ip), vehicle: saline with Tween-80 89 % of control

Clc1cccc2c1Cc1c(Cl)cccc1C2
inactive: endpoint: mean survival time, dose: 100.0 mg/kg/injection, schedule: Q01DX001 (ip), vehicle: saline with Tween-80 97 % of control | endpoint: mean survival time, dose: 200.0 mg/kg/injection, schedule: Q01DX001 (ip), vehicle: saline with Tween-80 94 % of control | endpoint: mean survival time, dose: 400.0 mg/kg/injection, schedule: Q01DX001 (ip), vehicle: saline with Tween-80 97 % of control

c1ccc(NC(Nc2ccccn2)c2ccncc2)nc1
inactive: [8] 104 % of control | [9] 111 % of control

CN(C)c1ccc(/C=C/c2nc3ccc(Cl)cc3[nH]2)cc1
inactive: [3] 96 % of control | [4] 103 % of control | [5] 96 % of control

COC(=O)c1cccc(N=NN(C)C)c1
inactive: [10] 105 % of control | [11] 119 % of control | [12] 108 % of control | endpoint: median survival time, dose: 23.0 mg/kg/injection, schedule: Q01DX009 (ip), vehicle: steriod suspending solution 110 % of control | endpoint: median survival time, dose: 65.0 mg/kg/injection, schedule: Q01DX001 (ip), vehicle: steriod suspending solution 100 % of control | endpoint: median survival time, dose: 65.0 mg/kg/injection, schedule: Q04DX003 (ip), vehicle: steriod suspending solution 105 % of control | endpoint: median survival time, dose: 108.0 mg/kg/injection, schedule: Q01DX001 (ip), vehicle: steriod suspending solution 100 % of control | endpoint: median survival time, dose: 108.0 mg/kg/injection, schedule: Q04DX003 (ip), vehicle: steriod suspending solution 110 % of control | endpoint: median survival time, dose: 180.0 mg/kg/injection, schedule: Q01DX001 (ip), vehicle: steriod suspending solution 110 % of control | endpoint: median survival time, dose: 300.0 mg/kg/injection, schedule: Q01DX001 (ip), vehicle: steriod suspending solution 110 % of control | endpoint: median survival time, dose: 833.0 mg/kg/injection, schedule: Q01DX001 (ip), vehicle: steriod suspending solution 100 % of control

COC(=O)C(NC(=O)OCc1ccccc1)C(=O)OC
inactive: [8] 100 % of control | [9] 100 % of control | [13] 98 % of control

CC[N+](C)(C)C1CCCCC1
inactive: [14] 94 % of control

O=C(NCc1ccccc1Cl)Nc1ccccc1F
inactive: [11] 106 % of control | [12] 98 % of control | [15] 115 % of control

CC1(C)C2C=CC1C(CO)(CO)C2 (stereo not drawn)
inactive: [6] 105 % of control | endpoint: mean survival time, dose: 100.0 mg/kg/injection, schedule: Q04DX003 (ip), vehicle: saline 103 % of control | endpoint: mean survival time, dose: 200.0 mg/kg/injection, schedule: Q01DX009 (ip), vehicle: saline 97 % of control | endpoint: mean survival time, dose: 200.0 mg/kg/injection, schedule: Q04DX003 (ip), vehicle: saline 92 % of control | endpoint: mean survival time, dose: 400.0 mg/kg/injection, schedule: Q01DX009 (ip), vehicle: saline 100 % of control | [7] 109 % of control

CCOC(=O)c1c[nH]c(C)c1C
inactive: [3] 104 % of control | [4] 109 % of control | [5] 105 % of control

O=C(O)Cc1ccc(Br)cc1
inactive: [8] 93 % of control | [9] 96 % of control | [13] 102 % of control

B1CCN1
inactive: endpoint: mean survival time, dose: 9.5 mg/kg/injection, schedule: Q01DX001 (ip), vehicle: saline 94 % of control | endpoint: mean survival time, dose: 19.0 mg/kg/injection, schedule: Q01DX001 (ip), vehicle: saline 103 % of control

Oc1ccccc1C=NCCN=Cc1ccccc1O
inactive: [16] 90 % of control | [17] 92 % of control | [18] 92 % of control

Cc1nc(Cl)c(C#N)nc1C
inactive: [19] 100 % of control | [16] 96 % of control | [8] 100 % of control | [17] 89 % of control | [9] 94 % of control

CCCCCCCCCCCCCCCCS(=O)(=O)c1ccc(S(=O)(=O)N/N=c2/sc3ccc(S(=O)(=O)O)cc3n2C)cc1C(=O)O
inactive: [19] 97 % of control | [16] 94 % of control

CSC1SCCCS1
inactive: endpoint: mean survival time, dose: 12.5 mg/kg/injection, schedule: Q04DX002 (ip), vehicle: saline with Tween-80 92 % of control | endpoint: mean survival time, dose: 25.0 mg/kg/injection, schedule: Q04DX002 (ip), vehicle: saline with Tween-80 98 % of control | endpoint: mean survival time, dose: 50.0 mg/kg/injection, schedule: Q04DX002 (ip), vehicle: saline with Tween-80 88 % of control

O=C1N(Cl)C(=O)C(c2ccccc2)(c2ccc(F)cc2)N1Cl (stereo not drawn)
inactive: [10] 94 % of control | [11] 94 % of control | [3] 96 % of control | [4] 94 % of control

O=[N+]([O-])c1ccc(OCc2ccccc2)nc1
inactive: [16] 104 % of control | [17] 97 % of control | [18] 93 % of control

S=c1[nH]c2ccccc2s1
inactive: endpoint: mean survival time, dose: 25.0 mg/kg/injection, schedule: Q01DX009 (ip), vehicle: saline with Tween-80 94 % of control | [19] 105 % of control | [11] 88 % of control | [16] 109 % of control | [20] 115 % of control | endpoint: mean survival time, dose: 100.0 mg/kg/injection, schedule: Q04DX003 (ip), vehicle: other 96 % of control | [8] 96 % of control | [12] 100 % of control | [21] 112 % of control | endpoint: mean survival time, dose: 200.0 mg/kg/injection, schedule: Q04DX003 (ip), vehicle: other 96 % of control | [9] 100 % of control | [15] 95 % of control | endpoint: mean survival time, dose: 400.0 mg/kg/injection, schedule: Q04DX003 (ip), vehicle: other 101 % of control

O=C1OCC/C1=C\C1CO1 (stereo not drawn)
inactive: [20] 97 % of control | [21] 95 % of control | endpoint: mean survival time, dose: 400.0 mg/kg/injection, schedule: Q04DX002 (ip), vehicle: saline 101 % of control

Cc1cccc(NC(=O)CCl)c1
inactive: endpoint: mean survival time, dose: 25.0 mg/kg/injection, schedule: Q01DX009 (ip), vehicle: Klucel (hydroxypropylcellulose) (HPC) 94 % of control | [10] 87 % of control | [11] 103 % of control and 92 % of control | [3] 103 % of control | [4] 96 % of control and 86 % of control | [5] 99 % of control

O=C(c1ccccc1)C1CNCCC1(O)c1ccccc1 (stereo not drawn)
inactive: [14] 104 % of control | endpoint: mean survival time, dose: 75.0 mg/kg/injection, schedule: Q04DX003 (ip), vehicle: acetone 101 % of control | endpoint: mean survival time, dose: 150.0 mg/kg/injection, schedule: Q01DX001 (ip), vehicle: saline 95 % of control | endpoint: mean survival time, dose: 150.0 mg/kg/injection, schedule: Q04DX003 (ip), vehicle: acetone 91 % of control | endpoint: mean survival time, dose: 300.0 mg/kg/injection, schedule: Q01DX001 (ip), vehicle: saline 116 % of control
